Here are results for ten molecules from ChEMBL document CHEMBL1201862, “PubChem BioAssay data set” (2004).

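Exposure lasted 48 hours, with cells grown in 96-well plates and compounds tested at five concentrations. GI50 is the concentration that inhibits growth by half.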 Calls of active or inactive are those of the source. Rule as the data show it: active = GI50 up to about 1.1 µM and inactive = higher.

Assay in all cases: NCI-60 cell line screen, 48 h
The test system of assay [1] is A549.
Assay [2] relates to ACHN.
Assay [3] deals with CAKI-1.
The test system of assay [4] is CCRF-CEM.
The test system of assay [5] is COLO 205.
Assay [6] has as its system EKVX.
In assay [7] the test system is HCC 2998.
For assay [8], the system named is HL-60.
Assay [9] relates to HT-29.
The subject of assay [10] is K562.
Assay [11] deals with KM12.
Assay [12] deals with LOX IMVI.
Assay [13] concerns Malme-3M.
Assay [14] deals with NCI-H23.
Assay [15] relates to NCI-H460.
The test system of assay [16] is NCI-H522.
For assay [17], the system named is SF-268.
Assay [18] deals with SK-OV-3.
In assay [19] the test system is SW-620.
For assay [20], the system named is UO-31.

Consider `O=C1OC(c2ccccc2)=N/C1=C/NC(Cc1ccc(O)cc1)C(=O)O` (stereo not given), for which the GI50 in assay [1], in [2], in [3], in assay [4], in [5] and in assay [6] was > 100 µM (inactive) throughout. Moreover, the GI50 in assay [7], in assay [8], in assay [9], in assay [10], in assay [11] and in assay [12] was > 100 µM (inactive) throughout. In addition, the GI50 in [13], in assay [14], in [15], in assay [16], in [17] and in assay [18] was > 100 µM (inactive) throughout. Also, the GI50 in assay [19] and in assay [20] was > 100 µM (inactive) throughout.
`CCOC(=O)c1c(Br)c(-c2ccc(OC)cc2)c(Br)n1C`: the GI50 in [1] was 21.3 µM (inactive); in assay [2], 29.6 µM (inactive); in assay [3], > 10 µM (inactive); in assay [4] it was 16.3 µM (inactive); in assay [5], 27.6 µM (inactive); in assay [6], 16.8 µM (inactive). The GI50 was > 10 µM (inactive) in assay [7]; 4.06 µM (inactive) in [8]; 12.7 µM (inactive) in [9]; 3.61 µM (inactive) in [10]; 11.4 µM (inactive) in assay [11]; 7.14 µM (inactive) in [12]. For the same molecule, the GI50 in [13] was 12.1 µM (inactive); in assay [14] it was 28 µM (inactive); in assay [15] it was 52.2 µM (inactive); in assay [16], 6.62 µM (inactive); in [17], 55.5 µM (inactive); in assay [18], 18.5 µM (inactive). In addition, the GI50 in [19] is 9.46 µM (inactive); in assay [20], 12.2 µM (inactive).
Turning to `C=CCC1(Sc2ccccn2)Sc2ccc3ccccc3c2-c2c(ccc3ccccc23)S1`, the GI50 in assay [1], in [2], in assay [3], in assay [4], in [5] and in assay [6] was > 100 µM (inactive) each time. In addition, the GI50 in [7], in [8], in [9], in assay [10], in assay [11] and in assay [12] was > 100 µM (inactive) each time. For the same molecule, the GI50 in assay [13], in assay [14], in assay [15], in [16], in [17] and in [18] was > 100 µM (inactive) throughout. The GI50 in assay [19] and in [20] was > 100 µM (inactive) in each case.
Turning to `O=C(NCc1ccccc1)c1cc2ccccc2o/c1=N\c1ccccc1F`, the GI50 in [1] is 18.1 µM (inactive); in assay [2], 19.5 µM (inactive); in assay [3], 14 µM (inactive); in assay [4], > 100 µM (inactive); in [5], 26.4 µM (inactive); in [6], 27.7 µM (inactive). The GI50 in [7] was 23.1 µM (inactive); in [8] it was > 100 µM (inactive); in assay [9] it was 45.8 µM (inactive); in assay [10], > 100 µM (inactive); in assay [11] it was 25.7 µM (inactive); in [12], 14.9 µM (inactive). For the same molecule, the GI50 was 25.2 µM (inactive) in [13]; 21.5 µM (inactive) in [14]; 41.7 µM (inactive) in assay [15]; 22 µM (inactive) in [16]; 30.8 µM (inactive) in assay [17]; 16.5 µM (inactive) in assay [18]. The values for the GI50 in assay [19] and in assay [20] were 26.1 µM (inactive) and 8.39 µM (inactive), respectively.
Take `c1ccc2c(c1)oc1ccc3nsnc3c12`: the GI50 in [1] was > 100 µM (inactive); in assay [2], > 100 µM (inactive); in assay [3], > 100 µM (inactive); in assay [4], > 100 µM (inactive); in assay [5], > 100 µM (inactive); in assay [6] it was 31.3 µM (inactive). The GI50 in assay [7] was > 100 µM (inactive); in assay [8] it was > 100 µM (inactive); in [9], > 100 µM (inactive); in assay [10] it was > 100 µM (inactive); in assay [11] it was 56 µM (inactive); in [12], > 10 µM (inactive). Besides, the GI50 in assay [13] is > 100 µM (inactive); in [14], > 100 µM (inactive); in [15] it was > 10 µM (inactive); in assay [16], > 100 µM (inactive); in assay [17], > 100 µM (inactive); in [18] it was > 100 µM (inactive). The GI50 in assay [19] and in assay [20] was > 100 µM (inactive) throughout.
Turning to `N#CC(c1ccccc1)N(CCc1ccccc1)C(=O)c1ccccc1` (stereo not given), the GI50 in assay [1] was > 100 µM (inactive); in [2], > 91.8 µM (inactive); in assay [3], > 100 µM (inactive); in assay [4] it was > 100 µM (inactive); in assay [5], > 100 µM (inactive); in [6] it was > 77.4 µM (inactive). For the same molecule, the GI50 in [7], in assay [8], in assay [9], in assay [10], in assay [11] and in assay [12] was > 100 µM (inactive) in each case. Further, the GI50 was > 72.1 µM (inactive) in assay [13]; 71.9 µM (inactive) in [14]; > 100 µM (inactive) in [15]; > 59.2 µM (inactive) in [16]; 30.2 µM (inactive) in assay [17]; 53.3 µM (inactive) in [18]. Further, the results for the GI50 in [19] and in assay [20] were > 100 µM (inactive) and > 74.6 µM (inactive), respectively.
`C1=C(c2ccccc2)C(OC2Oc3ccccc3C=C2c2ccccc2)Oc2ccccc21` (stereo not given): the GI50 in assay [1] was > 100 µM (inactive); in assay [2] it was 26.1 µM (inactive); in assay [3], > 100 µM (inactive); in [4], > 100 µM (inactive); in [5], > 100 µM (inactive); in assay [6] it was > 100 µM (inactive). Besides, the GI50 in assay [7], in assay [8], in assay [9], in [10], in [11] and in [12] was > 100 µM (inactive) in each case. Moreover, the GI50 in assay [13], in [14], in assay [15], in assay [16], in assay [17] and in [18] was > 100 µM (inactive) each time. Moreover, the figures for the GI50 in assay [19] and in assay [20] were 31.3 µM (inactive) and > 100 µM (inactive), respectively.
For the molecule `COc1ccc([C@H]2CC(=O)C[C@H](c3ccc(OC)cc3)C23C(=O)c2ccccc2C3=O)cc1`, the GI50 in assay [1] was 5.97 µM (inactive); in [2] it was 16.6 µM (inactive); in assay [3], 3.06 µM (inactive); in [4], 3.68 µM (inactive); in assay [5] it was 2.64 µM (inactive); in assay [6], 4.59 µM (inactive). In addition, the GI50 in [7] was 8.55 µM (inactive); in assay [8], 2.33 µM (inactive); in assay [9], 3.46 µM (inactive); in assay [10], 3.52 µM (inactive); in assay [11], 4.13 µM (inactive); in [12], 4.16 µM (inactive). Also, the GI50 in assay [13] is 5 µM (inactive); in assay [14], 26.1 µM (inactive); in assay [15], 3.65 µM (inactive); in assay [16] it was 3.16 µM (inactive); in [17], 6.76 µM (inactive); in assay [18], 3.97 µM (inactive). The GI50 in [19] was 3.53 µM (inactive); in assay [20], 17.3 µM (inactive).
Take `Nc1cn(C2OC(CC(c3ccccc3)(c3ccccc3)c3ccccc3)C(O)C2O)c(=O)[nH]c1=O` (stereo not given): the GI50 in assay [1] was 23 µM (inactive); in assay [2], > 100 µM (inactive); in assay [3] it was 19.5 µM (inactive); in assay [4] it was 23.3 µM (inactive); in assay [5], 16.6 µM (inactive); in [6], 33.7 µM (inactive). The GI50 in assay [7] is 27 µM (inactive); in [8], 17.3 µM (inactive); in assay [9] it was 23.2 µM (inactive); in [10], 23.4 µM (inactive); in assay [11], 31.3 µM (inactive); in assay [12] it was 19.1 µM (inactive). Also, the GI50 in assay [13] was 23.5 µM (inactive); in [14], 23.5 µM (inactive); in assay [15], 18.3 µM (inactive); in assay [16], 19.2 µM (inactive); in assay [17], 34.7 µM (inactive); in [18], 34.7 µM (inactive). For the same molecule, the figures for the GI50 in assay [19] and in assay [20] were 14.8 µM (inactive) and 31.6 µM (inactive), respectively.
As to `O=C1/C(=C/c2ccc([N+](=O)[O-])cc2)CNC/C1=C\c1ccc([N+](=O)[O-])cc1`, the GI50 in assay [1] is 17.5 µM (inactive); in [2] it was 12.3 µM (inactive); in [3], 1.79 µM (inactive); in assay [4], 0.229 µM (active); in assay [5] it was 5.62 µM (inactive); in [6], 9.86 µM (inactive). The GI50 is 5.62 µM (inactive) in assay [7]; 0.0944 µM (active) in assay [8]; 1.41 µM (inactive) in assay [9]; 0.188 µM (active) in [10]; 1.36 µM (inactive) in assay [11]; 2.09 µM (inactive) in [12]. In addition, the GI50 was 46.5 µM (inactive) in assay [13]; 4.62 µM (inactive) in assay [14]; 2.59 µM (inactive) in assay [15]; 2.52 µM (inactive) in assay [16]; 1.65 µM (inactive) in assay [17]; 48 µM (inactive) in [18]. Also, the GI50 is 0.638 µM (active) in [19] and 6.17 µM (inactive) in assay [20].
